In publication PMC11555526, “Development of 2-Aminoadenine-Based Proteolysis-Targeting Chimeras (PROTACs) as Novel Potent Degraders of Monopolar Spindle 1 and Aurora Kinases” (ACS Pharmacology & Translational Science, 2024):

What was measured:
[1] = Plasma stability (LC-ESI-MS); type: in vitro ADME; settings: 37 °C
Protocol: (§1) Lastly, to gain a first insight into the stability of the synthesized compounds in a biological system, the stability of one of the degraders was examined at two different pH values and in human plasma (Figures S8 and S9). We chose one of the best degraders of the SF1 series, 20 as it also resembled the best degrader from azareversine series 19 in terms of the linker and E3-binding moiety. All experiments were carried out at 37 °C, and aliquots were analyzed using LC-ESI-MS at predetermined time points. […] We concluded from the stability profile of 20 that it is sufficient for further testing.
First, 250 µg of conjugate 20 were diluted in 5 µL DMSO and the mixture was added to 0.5 mL of human plasma. The mixture was incubated at 37 °C. 50 µL of aliquot was removed at predetermined time points and quenched with 150 µL ice-cold acetonitrile (+0.1% formic acid). Then, the mixture was centrifuged at 10,000 rpm for 10 min. Then, 50 µL of supernatant was added to 50 µL of ultrapure water (+0.1% formic acid) and analyzed by LC-MS. Results are presented as the mean ± SD of three independent experiments. […]

[2] = Stability in buffer solutions (LC-ESI-MS); type: physicochemical; settings: for residual concentration (% of initial concentration): after 24 h
Protocol: as §1, with “testing. […]” for “testing.”
Stability in Buffer Solutions
The stability of the conjugate was examined by performing chemostability experiments at two different buffer solutions (pH = 5.2 and 7.4). Conjugate 20 was dissolved in 5 µL DMSO and transferred to 0.5 mL of the relevant buffer solution (acetate or phosphate aquatic buffer solutions). The mixture was then incubated at 37 °C, samples were collected at predetermined time points (0, 1, 2, 3, 4, 5, 24 and 48 h), and analyzed by LC-MS.
Results are presented as the mean ± of SD after repeating the experiment three times.
Figure S9: ESI-LCMS charts detected at 254 nm of conjugate 20 at pΗ5.2 and selected time intervals

[3] = target: T1, AURKA (Homo sapiens, UniProt O14965); assay: Immunoblot of AURKA in HiBiT-TTK cells; type: cell-based; settings: 6 h
T1 construct: endogenous in cells; host or cells: MV4-11 HiBiT-TTK cells (AURKA not transduced)
T1 sequence (O14965 1-403): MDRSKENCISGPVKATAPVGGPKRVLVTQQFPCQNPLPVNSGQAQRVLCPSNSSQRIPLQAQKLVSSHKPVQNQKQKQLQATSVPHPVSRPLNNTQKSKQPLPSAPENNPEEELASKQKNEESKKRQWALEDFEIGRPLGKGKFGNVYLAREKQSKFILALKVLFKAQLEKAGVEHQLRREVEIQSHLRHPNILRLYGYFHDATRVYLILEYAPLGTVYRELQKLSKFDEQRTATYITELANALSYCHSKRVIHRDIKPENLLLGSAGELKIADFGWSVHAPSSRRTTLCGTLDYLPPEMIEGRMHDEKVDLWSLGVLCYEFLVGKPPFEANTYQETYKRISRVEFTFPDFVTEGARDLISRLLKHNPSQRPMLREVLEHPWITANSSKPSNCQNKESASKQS
Protocol: The cells were treated with compounds or vehicle for indicated time points and lysed in RIPA lysis buffer (50 mM HEPES pH 7.9, 140 mM NaCl, 1 mM EDTA, 1% Triton X-100, 0.1% SDS, 0.1% sodium deoxycholate) containing protease and phosphatase inhibitors (Sigma) for 20 min at 4 °C. Cell lysates were cleared by centrifugation, and protein concentration was determined with bicinchoninic acid assay. Equal amounts of protein per sample were separated by Bis-Tris-PAGE and transferred to PVDF membranes (Millipore). The membranes were blocked with 5% (w/v) nonfat dry milk in TBS-T [20 mM Tris–HCl, pH 7.5, 150 mM NaCl, 0.1% (v/v) Tween-20] for 1 h at room temperature and incubated with primary antibody at 4 °C overnight. Visualization was carried out using horseradish peroxidase (HRP)-labeled secondary antibodies and detected using a chemiluminescent HRP substrate (Millipore) in LAS3000 or LAS4000 mini (Fujifilm). Vinculin, GAPDH, or B-actin were used as a loading control. […] The signal was quantified using ImageJ or Image Studio Lite against the corresponding loading controls. […]
Figure S2: Cellular degradation studies of SF1-based compounds. […] Indicated MV4-11 HiBiT cells were treated with different concentrations of 15 (B), and 28 (C) for 6 h, lysed, complemented with the large luciferase fragment (largeBiT), and luciferase 27 (A), activity was measured. […]

Row | half-life (t1/2) in human plasma [1] [h] | residual concentration (% of initial concentration) ([2]; pH 5.2, 37 °C) [%] | stability at both pH values ([2]; pH 5.2 and 7.4, 37 °C, for 8 h) | residual concentration (% of initial concentration) ([2]; pH 7.4, 37 °C) [%] | relative AURKA level (immunoblot quantification, vehicle = 1.00) ([3]; 0.16 µM) | relative AURKA level (immunoblot quantification, vehicle = 1.00) ([3]; 10 µM) | SMILES
1 | 4.4 | 56 | stable | 11.2 |  |  | CC(C)S(=O)(=O)c1ccccc1Nc1nc(Nc2ccc(N3CCN(C(=O)CNC(=O)CCCC(=O)Nc4cccc5c4C(=O)N(C4CCC(=O)NC4=O)C5=O)CC3)cc2)nc2[nH]cnc12 (stereo not drawn) [Compound 20]
2 |  |  |  |  | 1.00 | 0.87 | Cc1ncsc1-c1ccc(CNC(=O)[C@@H]2C[C@@H](O)CN2C(=O)[C@@H](NC(=O)COCCOCC(=O)N2CCN(c3ccc(Nc4nc(Nc5ccccc5S(=O)(=O)C(C)C)c5nc[nH]c5n4)cc3)CC2)C(C)(C)C)cc1 [Compound 49]
